Results published in patent publication US20080146495A1, “Methods for Treating Hiv by Inhibiting Cd4 Down-Modulation” (The Regents of the University of California, priority 2005, published 2008).

Legend:
Type in all cases: cell-based
[1] = test system: HIV-1
[2] = test system: HIV-1 Nef (NA7) fused to GFP; settings: 293T cells transduced with pHR'-CMV vectors, transfected with Nef (NA7)-GFP
[3] = test system: HIV-1 R9
[4] = test system: HIV-1 (R9); test: HIV-induced CD4 down-modulation in transduced CD4-positive cell lines (SupT1, C8166, MAGIC5B)
[5] = test system: HIV-1 (R9); test: Infectivity in MAGIC5 cells of particles released from transduced SupT1, C8166 and MAGIC5B cells; settings: three cell types (SupT1, C8166, MAGIC5B); compared to control GFP vectors
Procedure: Infectivity assays were performed with MAGIC-5 cells using equal amounts of input virus (measured as ng p24 protein) in the presence of 20 μg/ml DEAE dextran. Infection was allowed for 48 hours. Routinely, after 8 hrs of infection, 1 μM AZT was added to block second rounds of virus replication. Infected cells were scored after staining for beta-galactosidase with X-Gal.
Truncated receptor provided to a cell via one of the above-described vectors negatively interferes with HIV-induced down-regulation of endogenous CD4 receptor. […] Though any suitable cell line could be used, the three chosen were: SupT1, C8166, and MAGIC5B. These were selected because they express high levels of viral receptor, as shown in the bottom panel of FIG. 7. Transduction efficiencies with GFP control vectors were higher than 90% in all cell lines, as estimated by flow cytometry. Infection of mock-transduced cells with HIV-1 led to efficient down-modulation of CD4. […] In these cultures, a population of low-CD4/p24-positive infected cells that had undergone receptor down-modulation emerged. […] The infectivity of viral particles released from the cells was determined as with respect to FIG. 5, above.

[6] = test system: HIV-1 (R9); test: Surface CD4 down-modulation in transduced PBMC infected with HIV-1 (flow cytometry)
[7] = test system: CXCR4-tropic R9 HIV-1 strain; test: Viral replication assay in transduced Jurkat Low-CD4 cells (p24 accumulation)
[8] = test system: HIV-1 Env (gp160, gp120, gp41)
[9] = virions purified through sucrose cushions

Row | Molecule | extent of inhibition of infectivity relative to that by CD4Δcyt expression ([1]; 1 μM added to target MAGIC5 cells) | effect of Nef-GFP expression on surface expression of the CD4 variant [2] | amount on the surface of infected cells, mean values [3] | down-modulation of surface receptor by HIV-1 (VSV) [3] | surface levels in HIV-1 infected cells, higher than in infected cells transduced with wild-type CD4 [3] [fold] | extent of inhibition in single-round infectivity assays [1] | reduced infectivity of viral progeny [1] [fold] | reduction of infectivity of HIV-1 [1] | surface CD4 levels in infected cells, higher than in mock-infected cells ([4]; SupT1, C8166, MAGIC5B cells) | receptor down-modulation after HIV-1 infection of transduced CD4-positive cells ([4]; SupT1, C8166, MAGIC5B cells, 48 h after infection) | p24-positive cells with low levels of CD4 receptor ([4]; cultures of SupT1 and C8166 cells) | infectivity of viral particles released from transduced cells [5] | reduction in CD4 down-modulation compared to cells transduced with full-length receptor ([6]; PBMC infected with HIV-1) | numbers of low-CD4/GFP-positive cells after HIV-1 infection ([6]; PBMC transduced to similar levels with pWPI vector) | HIV-1 replication (p24 accumulation in cultures) ([7]; Jurkat Low-CD4 cells, HIV-1 R9) | revertant viruses ([7]; after more than 60 days, two independent experiments, Jurkat Low-CD4 cells exposed to HIV-1) | gp160 envelope precursor in producer cell lysates (anti-gp120 western blot) ([8]; total cell lysates of 293T producer cells) | steady-state levels of gp41 in producer cells ([8]; transduced 293T cells) | gp41 incorporation in membranes from virions [8, 9] | gp120 incorporation into / exclusion from virions [8, 9]
1 | Cc1cn([C@H]2C[C@H](N=[N+]=[N-])[C@@H](CO)O2)c(=O)[nH]c1=O [AZT, reference compound] | comparable |  |  |  |  |  |  |  |  |  |  |  |  |  |  |  |  |  |  | 
2 | CD4Δcyt |  | did not alter the expression | 2857 | completely resistant to down-modulation | 11 | greater than 99% | 100 | more than 1000 fold | 3- to 4 fold | failed to down-modulate the receptor | no longer observed | largely diminished infectivity | more than 10 fold | reduced numbers of low-CD4/GFP-positive cells | complete abrogation of HIV-1 replication | not detected | accumulation of a 160 kDa protein band | reduction in the steady-state levels of gp41 | Reductions in gp41 incorporation | more severe
